From patent US9649350B2, “Use for dendropanax morbifera extract for adjusting 15- hydroxyprostaglandin dehydrogenase and PGE 2 activity” (INDUSTRY-ACADEMIC COOPERATION FOUNDATION, CHOSUN UNIVERSITY, priority 2012, dated 2017)

Experiments:
ICR mice [1] = test: In vivo wound healing, 5 mm circular wound, H&E tissue staining; conditions: TGF-β1 20 ng/day
Description: To confirm the wound healing effect of Dendropanax morbifera extract of the present invention in vivo, following experiments were conducted. First, 7 week old male ICR mice (average weight: 25 g) were purchased from Damul Science Co. (Daejuen, Korea) and after a week of adjustment period, they were anesthetized by administering anesthetic (zoletil, 50 μL) into the abdominal cavity and then circular wound with diameter of 5 mm was made under anesthesia. From a day later, being divided into 4 groups, wound of each group was treated with drugs daily basis as below while 10 μL of drugs were applied to wound of each group and the degree of healing was observed by tissue staining Animal experiments conducted in the examples were approved by Chonnam National University animal experiment ethics committee (IRB) (CNU IACUC-YB-R-2012-12) and tissue staining was done by fragmenting the wounded tissue of mice on which the above experiment of 4 groups was conducted and stained with hemtoxylin-Eosin (H & E). The distance of recovered wound was measured by visualizing stained tissues with microscope (40×). Moreover, the wound healing efficiency was calculated based on the distance measured.

HaCaT cells = test: In vitro scratch analysis in HaCaT cells; type: cell-based, human; conditions: scratch model with 15-PGDH and its coenzyme NAD+
Description: For in vitro scratch analysis (Hintermann et al., 2001; Koivisto et al., 2006), HaCaT cells were seeded 3×10^5 cells per well on 6-well plates and cultured until 80% confluence was reached. Then, culture medium was replaced with serum-free medium containing mitomycin (10 μg/mL) and cells were cultured for 2 hours to block the proliferation of wound and washed with PBS. Scratch was made by sterilized 200 μL pipette tip and washed again.
The process of wound healing was observed by taking photographs of identical spots before and after the culture. Experiment was repeated for 3 times and representative photos were illustrated Immediately after the formation of scratch, photos of scratch were taken by microscope (×100) and 48 hours after the culture, photos were taken once more. By measuring the distance between scratch, the % recovery rate by drug was calculated in comparison with the negative control group.
In the meantime, in order to investigate whether PGE2 is directly involved in scratch healing, 15-PGDH and its coenzyme NAD^+ were treated in identical model system.

ICR mice [2] = test: In vivo gastric ulcer prevention, HCl/ethanol-induced gastric lesion; conditions: oral, 24 h and 1 h before HCl/ethanol; DMHE 0.87 mg/kg, sucralfate 100 mg/kg
Text: To investigate the prevention effect of Dendropanax morbifera for gastric ulcer, […] male ICR mice with weight of 20±2 g were used. The mice above were purchased from Damul Science Co. (Daejuen, Korea). Animal experiments conducted in the examples were approved by Chonnam National University animal experiment ethics committee (IRB) (CNU IACUC-YB-R-2012-11).
The above-described animals were divided into 3 groups (for each group, n=7) that comprise normal group (vehicle 0.5% CMC (carboxyl methylcellulose)), positive control group (sucralfate, 100 mg/kg in 0.5% CMC) and experimental group (Dendropanax morbifera leaf hexane extract in 0.5% CMC).
Balanced diet was provided to the animals and they were allowed to drink water freely. One week later, animals were forced to fast for all day long. 24 hours before inducing the […] bleeding, Dendropanax morbifera hexane extract (DMHE, dissolved in 0.5% CMC) was administered with oral dose of 0.87 mg/kg and administered once more 1 hour before HCl/ethanol was applied. It was conducted for the negative (0.5% CMC, 1 mL/kg) and positive control group (sucralfate, 100 mg/kg in 0.5% CMC) simultaneously. By administering HCl/ethanol mixture containing 150 mM HCl in 60% ethanol into stomach, gastric lesion of hemorrhage was induced. […]

Row | Substance | distance between wound (ICR mice [1]; 4th day after drug treatment) | % of healing compared to initial wound diameter (5 mm) (ICR mice [1]; 4th day) | wound healing effect on treatment with 15-PGDH and NAD+ (HaCaT cells) | gastric lesion (bleeding, edema) (ICR mice [2])
1 | TGF-β1: transforming growth factor β1, a cytokine; positive control for wound healing | 1.72 mm | 65.6% | completely vanished | 
2 | sucralfate |  |  |  | have not shown any type of lesion
